Data reported in ChEMBL document CHEMBL5385913, “First-in-Class Dual EZH2-HSP90 Inhibitor Eliciting Striking Antiglioblastoma Activity In Vitro and In Vivo” (J Med Chem, 2024).
The source made the active and inactive calls.

How the values were obtained:
GBM [1] = assay: Upregulation of HSPA8 gene expression in TMZ-resistant patient-derived human GBM cells by KEGG analysis; format: functional, cell-based
GBM [2] = assay: Upregulation of HSP90AA1 gene expression in TMZ-resistant patient-derived human GBM cells by KEGG analysis; format: functional, cell-based
GBM [3] = assay: Upregulation of HSPA4 gene expression in TMZ-resistant patient-derived human GBM cells by KEGG analysis; format: functional, cell-based
GBM [4] = assay: Upregulation of HSPA1A gene expression in TMZ-resistant patient-derived human GBM cells by KEGG analysis; format: functional, cell-based
GBM [5] = assay: Upregulation of HSPH gene expression in TMZ-resistant patient-derived human GBM cells by KEGG analysis; format: functional, cell-based
GBM [6] = assay: Upregulation of ARF3 gene expression in TMZ-resistant patient-derived human GBM cells by KEGG analysis; format: functional, cell-based
GBM [7] = assay: Upregulation of EHD1 gene expression in TMZ-resistant patient-derived human GBM cells by KEGG analysis; format: functional, cell-based
GBM [8] = assay: Upregulation of SERPINE1 gene expression in TMZ-resistant patient-derived human GBM cells by KEGG analysis; format: functional, cell-based
GBM [9] = assay: Upregulation of CTNNB1 gene expression in TMZ-resistant patient-derived human GBM cells by KEGG analysis; format: functional, cell-based
GBM [10] = assay: Upregulation of ACTB gene expression in TMZ-resistant patient-derived human GBM cells by KEGG analysis; format: functional, cell-based
GBM [11] = assay: Upregulation of ZYX gene expression in TMZ-resistant patient-derived human GBM cells by KEGG analysis; format: functional, cell-based
GBM [12] = assay: Downregulation of RPS6 gene expression in TMZ-resistant patient-derived human GBM cells by KEGG analysis; format: functional, cell-based
GBM [13] = assay: Downregulation of RPL35 gene expression in TMZ-resistant patient-derived human GBM cells by KEGG analysis; format: functional, cell-based
GBM [14] = assay: Downregulation of RPL26 gene expression in TMZ-resistant patient-derived human GBM cells by KEGG analysis; format: functional, cell-based
GBM [15] = assay: Downregulation of RPS10 gene expression in TMZ-resistant patient-derived human GBM cells by KEGG analysis; format: functional, cell-based
GBM [16] = assay: Downregulation of MCM7 gene expression in TMZ-resistant patient-derived human GBM cells by KEGG analysis; format: functional, cell-based
GBM [17] = assay: Downregulation of MCM3 gene expression in TMZ-resistant patient-derived human GBM cells by KEGG analysis; format: functional, cell-based
GBM [18] = assay: Downregulation of YWHAG gene expression in TMZ-resistant patient-derived human GBM cells by KEGG analysis; format: functional, cell-based
GBM [19] = assay: Downregulation of HNRNPA3 gene expression in TMZ-resistant patient-derived human GBM cells by KEGG analysis; format: functional, cell-based
GBM [20] = assay: Downregulation of PCBP1 gene expression in TMZ-resistant patient-derived human GBM cells by KEGG analysis; format: functional, cell-based
GBM [21] = assay: Downregulation of SRSF7 gene expression in TMZ-resistant patient-derived human GBM cells by KEGG analysis; format: functional, cell-based
GBM [22] = assay: Inhibition of cell proliferation in TMZ-resistant patient-derived human GBM cells at 2 uM incubated for 48 hrs; format: functional, cell-based
GBM [23] = assay: Suppression of cell division in TMZ-resistant patient-derived human GBM cells by GSEA analysis; format: functional, cell-based
GBM [24] = assay: Suppression of DNA repair in TMZ-resistant patient-derived human GBM cells by GSEA analysis; format: functional, cell-based
GBM [25] = assay: Upregulation of apoptosis-related gene expression in TMZ-resistant patient-derived human GBM cells; format: functional, cell-based
GBM [26] = assay: Upregulation of necrosis-related gene expression in TMZ-resistant patient-derived human GBM cells; format: functional, cell-based
GBM [27] = assay: Downregulation of M phase-related gene expression in TMZ-resistant patient-derived human GBM cells; format: functional, cell-based
GBM [28] = assay: Downregulation of kinetochore-related gene expression in TMZ-resistant patient-derived human GBM cells; format: functional, cell-based
GBM [29] = assay: Downregulation of spindle-related gene expression in TMZ-resistant patient-derived human GBM cells; format: functional, cell-based
GBM [30] = assay: Downregulation of CDK1 level in TMZ-resistant patient-derived human GBM cells upto 5 uM incubated for 48 to 72 hrs by Western blot analysis; format: functional, cell-based; conditions: time 48-72 hrs
GBM [31] = assay: Downregulation of cyclin B level in TMZ-resistant patient-derived human GBM cells upto 5 uM incubated for 48 to 72 hrs by Western blot analysis; format: functional, cell-based; conditions: time 48-72 hrs
GBM [32] = assay: Downregulation of CENPF level in TMZ-resistant patient-derived human GBM cells upto 5 uM incubated for 48 to 72 hrs by Western blot analysis; format: functional, cell-based; conditions: time 48-72 hrs
GBM [33] = assay: Downregulation of CENPE level in TMZ-resistant patient-derived human GBM cells upto 5 uM incubated for 48 to 72 hrs by Western blot analysis; format: functional, cell-based; conditions: time 48-72 hrs
GBM [34] = assay: Downregulation of CENPA level in TMZ-resistant patient-derived human GBM cells upto 5 uM incubated for 48 to 72 hrs by Western blot analysis; format: functional, cell-based; conditions: time 48-72 hrs
GBM [35] = assay: Downregulation of CENPI level in TMZ-resistant patient-derived human GBM cells upto 5 uM incubated for 48 to 72 hrs by Western blot analysis; format: functional, cell-based; conditions: time 48-72 hrs
GBM [36] = assay: Induction of cell cycle arrest in TMZ-resistant patient-derived human GBM cells at 1 uM incubated for 24 to 72 hrs by PI staining based flow cytometry; format: functional; conditions: time 24-72 hrs
[37] = Downregulation of CENPF level in TMZ-resistant patient-derived human GBM cells assessed as fold change at 2 uM by GlioVis analysis (reference value: 6.6); format: functional
[38] = Downregulation of NASP level in TMZ-resistant patient-derived human GBM cells assessed as fold change at 2 uM by GlioVis analysis (reference value: 5.08); format: functional
[39] = Downregulation of CENPP level in TMZ-resistant patient-derived human GBM cells assessed as fold change at 2 uM by GlioVis analysis (reference value: 2.18); format: functional

CCN(c1cc(-c2cccc(N(C)C(=O)c3cc(C(C)C)c(O)cc3O)c2)cc(C(=O)NCc2c(C)cc(C)[nH]c2=O)c1C)C1CCOCC1
3.41: fold change (FC) [38]
active: Activity (GBM [1]) | Activity (GBM [2]) | Activity (GBM [3]) | Activity (GBM [4]) | Activity (GBM [5]) | Activity (GBM [6]) | Activity (GBM [7]) | Activity (GBM [8]) | Activity (GBM [9]) | Activity (GBM [10]) | Activity (GBM [11]) | Activity (GBM [12]) | Activity (GBM [13]) | Activity (GBM [14]) | Activity (GBM [15]) | Activity (GBM [16]) | Activity (GBM [17]) | Activity (GBM [18]) | Activity (GBM [19]) | Activity (GBM [20]) | Activity (GBM [21]) | inhibition (GBM [22]) | Activity (GBM [23]) | Activity (GBM [24]) | Activity (GBM [25]) | Activity (GBM [26]) | Activity (GBM [27]) | Activity (GBM [28]) | Activity (GBM [29]) | Activity (GBM [30]) | Activity (GBM [31]) | Activity (GBM [32]) | Activity (GBM [33]) | Activity (GBM [34]) | Activity (GBM [35]) | Activity (GBM [36])
1.27: fold change (FC) [39]
3.46: fold change (FC) [37]
